Laboratory results as given in patent US5688913A, “CS-1 peptidomimetics, compositions and methods of using the same” (Cytel Corporation, priority 1995, dated 1997).
Peptide text beside a SMILES is read from it.

Columns and labels:
VLA-4 = VLA-4 (Homo sapiens, UniProt P05556+P13612); experiment: cell-based; format: cell-based; design: host or cells: Jurkat (human T lymphoblastic line)
In short: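 51Cr-labelled Jurkat cells (human T lymphoblastic) were preincubated 30 min at about 22 °C with peptide, then allowed to bind 30 min at 37 °C to wells coated with CS-1 peptide or CS-1-OVA. After washing, bound cells were lysed with SDS and counted. IC50 is the peptide concentration halving binding, normalized to plate controls.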

Jurkat T cell line = experiment: Jurkat cell binding to frozen human RA synovial sections; format: cell-based; conditions: 10-mer at 500 μg/ml; inhibitor peptide at its IC50 value
Description: Binding studies were carried out using the Jurkat T cell line and frozen RA synovial sections. […] Stimulated MOLT-4 cells behaved similarly.

Chain of VLA-4 (P13612 34-1032): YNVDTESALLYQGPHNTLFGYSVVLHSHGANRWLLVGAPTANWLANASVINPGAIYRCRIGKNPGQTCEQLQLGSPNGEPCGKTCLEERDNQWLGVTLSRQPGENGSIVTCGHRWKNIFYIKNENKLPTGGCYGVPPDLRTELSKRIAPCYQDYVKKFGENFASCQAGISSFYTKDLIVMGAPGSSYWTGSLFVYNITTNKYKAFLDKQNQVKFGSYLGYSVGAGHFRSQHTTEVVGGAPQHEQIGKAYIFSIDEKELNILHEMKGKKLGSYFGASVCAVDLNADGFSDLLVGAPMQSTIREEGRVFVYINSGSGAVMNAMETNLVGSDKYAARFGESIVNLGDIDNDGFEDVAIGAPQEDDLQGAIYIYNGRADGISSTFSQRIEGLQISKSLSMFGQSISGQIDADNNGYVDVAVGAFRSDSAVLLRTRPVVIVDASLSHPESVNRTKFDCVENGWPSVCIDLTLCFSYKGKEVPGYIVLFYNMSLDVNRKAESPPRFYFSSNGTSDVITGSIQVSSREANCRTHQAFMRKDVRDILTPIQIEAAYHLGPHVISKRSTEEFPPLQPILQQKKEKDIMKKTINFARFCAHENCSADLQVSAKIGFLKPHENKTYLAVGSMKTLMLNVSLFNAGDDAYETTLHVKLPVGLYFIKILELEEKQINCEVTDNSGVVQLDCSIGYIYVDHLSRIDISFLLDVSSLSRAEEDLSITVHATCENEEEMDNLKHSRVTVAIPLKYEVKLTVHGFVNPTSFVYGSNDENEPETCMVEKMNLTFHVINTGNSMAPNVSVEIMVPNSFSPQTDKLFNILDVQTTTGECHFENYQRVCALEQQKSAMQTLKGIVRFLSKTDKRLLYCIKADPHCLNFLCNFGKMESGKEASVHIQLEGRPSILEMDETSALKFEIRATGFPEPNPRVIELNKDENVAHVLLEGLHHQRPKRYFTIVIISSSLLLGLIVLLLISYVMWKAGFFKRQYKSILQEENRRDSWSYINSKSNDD
Chain of VLA-4 (P05556 21-798): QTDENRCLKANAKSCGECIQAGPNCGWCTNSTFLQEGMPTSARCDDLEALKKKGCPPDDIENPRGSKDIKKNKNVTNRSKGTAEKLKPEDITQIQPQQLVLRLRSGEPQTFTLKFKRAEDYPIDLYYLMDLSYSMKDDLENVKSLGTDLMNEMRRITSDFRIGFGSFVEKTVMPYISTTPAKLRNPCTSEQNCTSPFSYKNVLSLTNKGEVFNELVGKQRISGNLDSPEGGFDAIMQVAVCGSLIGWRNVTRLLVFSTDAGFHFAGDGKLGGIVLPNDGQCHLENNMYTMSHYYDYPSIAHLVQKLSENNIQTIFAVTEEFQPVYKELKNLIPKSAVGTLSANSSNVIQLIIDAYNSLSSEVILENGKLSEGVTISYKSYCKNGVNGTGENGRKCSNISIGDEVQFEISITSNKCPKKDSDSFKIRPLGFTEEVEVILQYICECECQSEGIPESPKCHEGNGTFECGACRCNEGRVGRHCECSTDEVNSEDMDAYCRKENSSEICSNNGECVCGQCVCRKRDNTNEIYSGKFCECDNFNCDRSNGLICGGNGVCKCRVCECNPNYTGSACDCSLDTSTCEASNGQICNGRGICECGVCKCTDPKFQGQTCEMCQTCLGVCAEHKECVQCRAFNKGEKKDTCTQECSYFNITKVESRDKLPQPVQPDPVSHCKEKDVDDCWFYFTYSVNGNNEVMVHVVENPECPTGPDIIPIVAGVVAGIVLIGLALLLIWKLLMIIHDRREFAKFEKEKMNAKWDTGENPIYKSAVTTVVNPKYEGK

RELATIVE POTENCY (relative peptide inhibition of VLA-4 binding CS-1) (VLA-4): 1
Compound: CC[C@H](C)[C@H](NC(=O)[C@H](CCC(=O)O)NC(=O)[C@@H]1CCCN1C(=O)CN)C(=O)N[C@@H](CC(C)C)C(=O)N[C@@H](CC(=O)O)C(=O)N[C@H](C(=O)N1CCC[C@H]1C(=O)N[C@@H](CO)C(=O)N[C@H](C(=O)O)[C@@H](C)O)C(C)C [G P E I L D V P S T free amine free acid, GPEILDVPST, reference compound] (H-GPEILDVPST-OH)
inhibition of Jurkat cell adhesion to RA synovial sections (Jurkat T cell line): could be inhibited
